Like-named read-outs stand apart in the source and are kept apart here. Values belong to the compound of their own block, whether it stands above or below them.
Assays:
[1] = tested on: Tryptophan hydroxylase (TH); details: cited from earlier work; for effect of buffer on TH stability: tested at same pH and salt concentration; for effect on TH melting temperature: buffer of 20 mM HEPES/NaOH and 100 mM (NH4)2SO4 (pH 7.0)
protein sample [2] = assay: Protein stability screen: protein melting point temperature in MES/BTP buffer mixture; assay type: physicochemical
Source text: In one embodiment, the present invention contemplates a method comprising a physiologic buffer mixture having a temperature-stable pKa to identify test compounds that increase stability of a sample protein by performing a protein melting point temperature screen. […] Although it is not necessary to understand the mechanism of an invention it is believed that a protein stability screen acts to define the bulk properties of a solution system (i.e. impact of pH, ionic strength, buffer etc.) and not just one specific component like most of the other screening conditions. The buffer system also acts as an internal control that simultaneously compares new and old conditions under identical conditions. Although commonly used previously, a urea stability test provides validation and verification of all testing parameters by comparative analysis with historical literature. DMSO screening allows for the nomination of conditions where protein compounds are usually insoluble (e.g., for example, drug binding studies) to identify the proper use of DMSO to solubilize these compounds without effecting the performance of the intended assay.
See, FIG. 1. […] See, FIG. 3. […] See, FIG. 4. […] See, FIG. 5. […] See, FIG. 6.
A metal ion screen was performed that compared the relative effects of five (5) different metal chloride ions, each at two different concentrations. See, FIG. 7. […] See, FIG. 8.
In one embodiment, the kit instructions comprise the following steps: • i) pre-chill the RT-PCR plate at 4° C. for 15-30 minutes prior to the addition of reagents and/or protein sample to each of the wells. • ii) The dye vial and kit plates should be stored at −20° C. and away from light until the time of use. • iii) Add 5 μl of dye to 500 μl of protein sample. The dye to protein ratio can be modified to any particular protein. For example, smaller proteins or proteins with a small hydrophobic core may require an increased dye concentration. • iv) Transfer 5 μl of each solution from the well plate to a corresponding well of the RT-PCR plate. • v) Add 5 μl of the protein/dye mixture to each well of the RT-PCR plate (>0.5 mg/ml). • vi) Mix the solutions by pipetting up and down (˜5 times). • a) gently placing all solutions at the bottom of the avoids subsequent plate centrifugation. • vii) Seal the RT-PCR plate. • viii) Immediately load the TR-PCR plate into the instrument and begin the programmed heating schedule (approximate timeframe=62 minutes), for example: • a) Heat to 20 C • b) Ramp to 90 C in 0.5 C increments. • c) Ramp to 4 C with a two minute schedule. • ix) Upload stored data file to a designated website (e.g., for example, caymanchem.com/deltatm) and follow the instructions.

Dwarf27 protein = biological target: T1, Dwarf27 protein (Oryza sativa subsp. japonica, UniProt C7AU21); assay: Dwarf27 protein stability screen in MES-BTP buffer mixture (melting point temperature); assay type: physicochemical; details: for concentration for customized buffer system for Dwarf27: MES-BTP, Spyro Orange; for effect on protein Tm as compared to the control Tm: Dwarf27 (D27), concentration screen, FIG. 16
T1 sequence (C7AU21 41-278): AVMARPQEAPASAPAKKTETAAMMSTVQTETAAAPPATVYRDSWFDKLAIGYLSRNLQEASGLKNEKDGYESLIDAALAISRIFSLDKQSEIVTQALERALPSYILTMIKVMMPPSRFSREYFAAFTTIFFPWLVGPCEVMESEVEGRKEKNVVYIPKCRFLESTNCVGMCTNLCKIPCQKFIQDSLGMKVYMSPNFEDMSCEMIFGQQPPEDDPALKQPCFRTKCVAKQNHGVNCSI
Source text: Many methods have been used to describe protein stability. A primary method of early literature was the urea degradation study. As a point of comparative reference to this early literature, the present invention maintains a concentration dependent measure of protein stability relative to urea concentration. […] See, FIG. 16A. […] See, FIG. 16B.
See, FIG. 17A. In one embodiment, the present invention contemplates a multi-component single buffer mixture characterized by: i) a low delta specific heat (CP); ii) low buffer-buffer interactions; iii) low divalent cation chelation; and iv) buffering capacity over a wide pH range. In one embodiment, the multi-component single buffer mixture comprises MES and BTP. See, FIG. 17B. […] The optimal pH for Dwarf27 protein was determined by other methods to be pH 7.5 (data not shown).
Data was collected using a Spyro Orange fluorophore.
The integrated analysis compared the differences in inflection points of these protein melting temperature point screens to identify Dwarf27 protein melting point profiles. See, FIG. 19.

[3] = Kipp et al., cited from earlier work; for ΔpH=pH(60° C.)−pH(25° C.): 0.1 M, initial pH=7 (25° C.), PHTEMP simulation
protein sample [4] = assay: Cryoprotection protein melting point temperature screen; assay type: physicochemical
Description: For example, a protein melting point temperature screen was performed using sucrose at several different concentrations. […] See, FIG. 10. […] See, FIG. 11. […] See, FIG. 12.
Conversely, the present method can also identify compounds that might not be expected to provide quality cryoprotectant effects. For example, glycerol is widely accepted to provide cryoprotection. […] See, FIG. 13. […] This is opposite to what one would expect for an indicative parameter to identify a quality cryoprotectant. […] Although it is not necessary to understand the mechanism of an invention, it is believed that the use of such an improved cryoprotectant improves stability for nearly two years. […] See, FIG. 14.

[5] = Hoefmeister Series screen, higher Tm
[6] = cryoprotection screen, dose response

Compound: OCC(CO)(CO)NCCCNC(CO)(CO)CO [Bis Tris Propane]
effect of buffer on TH stability [1]: no significant effect on stability

concentration for customized buffer system for Dwarf27 (Dwarf27 protein): 7%
Compound: C[S+](C)[O-] [DMSO, dimethyl sulfoxide]
effect on protein melting point temperature (protein sample [2]; buffer mixture of MES and BTP, concentration screen): consistently increased protein melting point temperatures

Compound: O=S(=O)(O)CCN1CCN(CCO)CC1 [HEPES, 4-(2-hydroxyethyl)-1-piperazine ethanesulfonic acid]
effect of buffer on TH stability [1]: no significant effect on stability

Compound: O=S(=O)(O)CCCN1CCOCC1 [MOPS, 3-(N-morpholino)propanesulfonic acid]
effect of buffer on TH stability [1]: no significant effect on stability

concentration for customized buffer system for Dwarf27 (Dwarf27 protein): 100 mM
Compound: O=S(=O)(O)CCN1CCN(CCS(=O)(=O)O)CC1 [PIPES, piperazine-N,N′-bis(2-ethanesulfonic acid]

Compound: CC(=O)O [acetic acid]
ΔpH=pH(60° C.)−pH(25° C.) [3]: approximately 0 | ΔH zero (enthalpy of acid dissociation) [3]: -0.1 kcal/mol

Compound: Cl.N [ammonium chloride]
effect on protein stability (Tm) (protein sample [2]; [5]): improved the stability of the protein

Compound: N.N.O=S(=O)(O)O [ammonium sulphate]
effect on protein Tm as compared to the control Tm (Dwarf27 protein): concentration-dependent increase in protein Tm

Compound: O.O.[Ca+2].[Cl-].[Cl-] [calcium chloride dihydrate]
effect on protein stability (Tm) (protein sample [2]): improved the stability of the protein

Compound: [Cl][Co][Cl] [cobalt chloride]
concentration for customized buffer system for Dwarf27 (Dwarf27 protein): 0.005 to 0.025 mM

Compound: OCCO [ethylene glycol]
effect on protein melting point temperature (protein sample [4]; [6]): dose-dependent decrease in protein melting point temperatures

Compound: N[C@@H](CCC(=O)O)C(=O)O [glutamic acid]
concentration for customized buffer system for Dwarf27 (Dwarf27 protein): 25 mM

effect on protein melting point temperature (protein sample [2]; MES/BTP, glycerol concentrations above 10%): raised the protein melting temperature | concentration for customized buffer system for Dwarf27 (Dwarf27 protein): 2.5%
Compound: OCC(O)CO [glycerol]
effect on protein melting point temperature (protein sample [2]; MES/BTP, glycerol concentrations below 10%): lowered the protein melting point temperature | effect on protein melting point temperature (protein sample [4]; [6]): dose-dependent decrease in protein melting point temperature | effect on TH melting temperature [1]: increased melting temperature

Compound: Cl.N=C(N)N [guanidinium hydrochloride]
effect on protein stability (Tm) (protein sample [2]; [5]): improved the stability of the protein

Compound: [Cl-].[Li+] [lithium chloride]
effect on protein stability (Tm) (protein sample [2]; [5]): improved the stability of the protein

Compound: [Cl-].[K+] [potassium chloride]
effect on protein stability (Tm) (protein sample [2]; [5]): improved the stability of the protein

Compound: CC(=O)[O-].O.O.O.[Na+] [sodium acetate trihydrate]
effect on protein stability (Tm) (protein sample [2]): improved the stability of the protein

Compound: O=C([O-])CC(O)(CC(=O)[O-])C(=O)[O-].[Na+].[Na+].[Na+] [sodium citrate tribasic]
effect on protein stability (Tm) (protein sample [2]): improved the stability of the protein

Compound: [F-].[Na+] [sodium fluoride]
effect on protein stability (Tm) (protein sample [2]; [5]): improved the stability of the protein

Compound: [I-].[Na+] [sodium iodide]
effect on protein stability (Tm) (protein sample [2]; [5]): improved the stability of the protein

Compound: O=[N+]([O-])[O-].[Na+] [sodium nitrate]
effect on protein stability (Tm) (protein sample [2]; [5]): improved the stability of the protein

effect on protein stability (Tm) (protein sample [2]; [5]): improved the stability of the protein | concentration for customized buffer system for Dwarf27 (Dwarf27 protein): 50 mM
Compound: O=P([O-])([O-])O.[Na+].[Na+] [sodium phosphate dibasic]

Compound: O.O.O.O.O.O.O.O.O.O.O=S(=O)([O-])[O-].[Na+].[Na+] [sodium sulphate decahydrate]
effect on protein stability (Tm) (protein sample [2]): improved the stability of the protein

effect on protein stability (Tm) (protein sample [2]; [5]): improved the stability of the protein
Compound: O=C([O-])C(O)C(O)C(=O)[O-].[Na+].[Na+] (stereo not drawn) [sodium tartrate dibasic]

Compound: N#C[S-].[Na+] [sodium thiocynate]
effect on protein stability (Tm) (protein sample [2]; [5]): improved the stability of the protein

Compound: OC[C@@H](O)[C@@H](O)[C@H](O)[C@@H](O)CO [sorbitol]
effect on TH melting temperature [1]: increased melting temperature

effect on protein melting point temperature (protein sample [4]; 25% sucrose and 30% sucrose): raised the melting point temperature
Compound: OC[C@H]1O[C@@](CO)(O[C@H]2O[C@H](CO)[C@@H](O)[C@H](O)[C@H]2O)[C@@H](O)[C@@H]1O [sucrose]
effect on TH melting temperature [1]: increased melting temperature

Compound: O=S(=O)(O)O [sulfuric acid]
ΔpH=pH(60° C.)−pH(25° C.) [3]: approximately −0.4 | ΔH zero 1 [3]: -12 kcal/mol | ΔH zero 2 [3]: -5.4 kcal/mol

increase in protein melting temperature relative to sucrose (protein sample [4]; cryoprotection screen): more pronounced than sucrose
Compound: OC[C@H]1O[C@H](O[C@H]2O[C@H](CO)[C@@H](O)[C@H](O)[C@H]2O)[C@H](O)[C@@H](O)[C@@H]1O [trehalose]

Compound: CCN(CC)CC [triethylamine]
ΔpH=pH(60° C.)−pH(25° C.) [3]: approximately −0.8 | ΔH zero (enthalpy of acid dissociation) [3]: 10.4 kcal/mol

effect on protein (protein sample [2]; MES/BTP, urea concentrations in excess of 1.75 M, no melting point determinable): complete protein denaturation | effect on protein melting point temperature (protein sample [2]; MES/BTP, urea under 0.5 M or between 0.75-1.75 M): lower protein melting point temperatures | effect on protein Tm as compared to the control Tm (Dwarf27 protein): generalized decreases in protein Tm
Compound: NC(N)=O [urea]

Compound: OC[C@@H](O)[C@H](O)[C@@H](O)CO [xylitol]
effect on protein melting temperature in comparison to sucrose or trehalose (protein sample [4]; e.g. 30%): raised the protein melting temperature a full degree
